Laboratory results: patent US20240075080A1, “USE OF LACTIC ACID BACTERIA TO INHIBIT METHANOGEN GROWTH OR REDUCE METHANE EMISSIONS” (Fonterra Co-Operative Group Limited, priority 2020, published 2024)

Experiments:
ruminal methanogens = details: mixed rumen in vitro assay; cited from earlier work
[1] = nisin >1 μM added to alfalfa hay; cited from earlier work
[2] = test system: Methanobrevibacter boviskoreani JH1; assay: Plate-based methanogen bioassay of bacteriocin extract and supernatant samples (Example 2, MOPS buffer); assay type: cell-based; details: for Mean % Growth JH1 / Mean % Inhibition: 30% v/v, sample 1 vs 0.9% NaCl, samples 2-7 vs MRS + NH4 lactate
Method: Cultures of the indicator methanogen strain were prepared according to item 1.1.1 of Example 1.
Cell and supernatant samples of L. rhamnosus HN001 were derived from a commercial manufacturing run of ˜5,000 L under standard production conditions. Four samples were used, consisting of: • Sample 1. L. rhamnosus HN001 cell sample, unwashed, freeze-dried, low pH extract. • Sample 2. L. rhamnosus HN001 supernatant sample, evaporated @50° C., 35% solids, ˜8× concentrated. • Sample 3. L. rhamnosus HN001 supernatant sample, evaporated @50° C., 45%+solids; ˜11× concentrated. • Sample 4. L. rhamnosus HN001 supernatant sample, freeze-dried.
These samples were kept frozen at −20° C. until needed. Prior to bioassay, the cell sample (Sample 1) was resuspended at 5% (wt/vol) in 0.9% NaCl, pH 6.8, and processed using the bacteriocin extraction method described in 2.1.3 below, resulting in an extract which was stored frozen at −20° C. until use. The evaporated supernatant samples (Samples 2 & 3) and the freeze-dried supernatant sample (Sample 4) were also resuspended at 5% (wt/vol) in 0.9% NaCl, pH 6.8 and filtered through Millex-GP 0.22 μm 25 mm diameter sterile filters (Millipore, Merck, Sigma-Aldrich NZ) into sterile N2-flushed Hungate tubes using 10 mL syringes. The headspace of the Hungate tubes were further flushed for 30 min with a sterile flow of N2 to remove traces of O2 from the samples.
Heat treatments were carried out with the L. rhamnosus HN001 supernatant which generated a further three samples as follows: • Sample 5. L. rhamnosus HN001 supernatant sample, heated at 72° C./15 sec. • Sample 6. L. rhamnosus HN001 supernatant sample, heated at 75° C./4 min. • Sample 7. L. rhamnosus HN001 supernatant sample, heated at 100° C./4 min.
After heat treatment, the samples were filtered through 0.22 μm filters as described above into sterile N2-flushed Hungate tubes and the headspace flushed with a sterile flow of N2. The samples were stored at −20° C. until screening in the indicator methanogen bioassay.
The resuspended culture was transferred into a 15 mL Falcon tube and the pH adjusted to ˜6.8 with 6M NaOH. The pH-adjusted culture sample was incubated at 70° C. for 45 minutes, then centrifuged for 15 min at 2600×g at 4° C. The supernatant was decanted and the cell pellet was resuspended in 8 mL 0.9% NaCl, pH 2. The pH of the resuspended pellet was checked and if necessary, 1M HCl was used to adjust the final pH to 2. The cells were incubated for 2 hours at 4° C. with slow agitation on a shaking platform. The cells were then centrifuged at 2600×g for 15 min at 4° C., and the supernatant collected into a fresh 15 mL Falcon tube. The pH of the supernatant was adjusted 6.8 with 1M NaOH. The pH-adjusted supernatant was filtered through a Millex-GP 0.22 μm 25 mm diameter sterile filter (Millipore, Merck, Sigma-Aldrich NZ) into a sterile N2-flushed Hungate tube using a 10 mL syringe, under sterile conditions. The filtered supernatant was frozen at −20° C. until use.
The bacteriocin extracts contained under anaerobic conditions in Hungate tubes were placed into an anaerobic chamber and allowed to thaw. All of the assay components except the bacteriocin extracts, were added and mixed in a sterile Hungate tube inside the anaerobic chamber in proportion to those indicated in Table 3 and then dispensed into wells of a multiwell 96 well plate containing the bacteriocin extracts. […]

[3] = test system: Methanobrevibacter boviskoreani JH1; assay: Plate-based methanogen bioassay of culture filtrates (Example 1, phosphate buffer); assay type: cell-based; details: filtered supernatant 30% v/v (nisin 4 μM); 5 days at 39° C.; OD600 relative to methanogen without treatment; 16 wells
Method: The inoculum of an indicator methanogen strain (Methanobrevibacter boviskoreani JH1) for seeding the plate assay was grown in 9 mL BY medium (Joblin, 2005) supplemented with 0.2 mL of 3 M sodium formate, 0.2 mL of 10 M ethanol, 0.1 mL of Vitamin Solution (Janssen et al., 1997) and 0.1 mL of Coenzyme M Solution (Sigma Aldrich, 0.1 M) by syringe using anaerobic techniques. The head spaces of the tubes were pumped with pressurized O2-free CO2 to 180 kPa and the tubes were incubated at 39° C. without shaking until visible turbidity appeared after 3 to 5 days. Methane produced by the methanogen strain was measured by removing a sample of the headspace gases by syringe and injecting on to a gas chromatograph (GC; Aerograph Corporation, USA) equipped with a Thermal Conductivity Detector (TCD) and using nitrogen as the carrier gas. […] The cultures were routinely observed via wet mounts under fluorescence microscopy, and the methanogen strain appears as short ovoid-shaped rods that fluoresce green under ultraviolet (UV) illumination. […]
Cultures of L. rhamnosus HN001, and control strains (L. plantarum ATCC 8014, L. bulgaricus ATCC 11842) were grown overnight in MRS broth (Sigma-Aldrich) at 39° C. The optical density at 600 nm (OD600) was measured for each culture, and a sample of each was serially diluted through MRS medium and the dilutions plated onto MRS agar plates to determine viable counts. […]

Substance | reduction of methane production (ruminal methanogens) [%] | ratio of acetate to propionate production (in words) [1] | inhibition of growth of the indicator methanogen strain (in words) [2] | Mean % Growth JH1 ([2]; Assay 1) [%] | Mean % Inhibition ([2]; Assay 1) [%] | Mean % Growth JH1 ([2]; Assay 2) [%] | Mean % Inhibition ([2]; Assay 2) [%] | % methanogen growth [3] [%]
bovicin HC5 | 50 |  |  |  |  |  |  | 
Nisin |  | reduced | strong inhibition | 5.2 | 97.5 | 18.2 | 81.8 | 12.2
